Drawing on US10821115B2, “Compounds that inhibit Mcl-1 protein” (priority 2017, dated 2020), this text covers IC50 for 16 molecules.

One experiment concerns human multiple myeloma cell line, OPM-2. In words: Cell viability assay (OPM-2 10 FBS), CellTiter-Glo. In kind it is cell-based. Particulars: Homo sapiens, OPM-2, 16 h, read-out: OPM-2 10% FBS IC50 IP, OPM-2 cells, 10% FBS, 16 h, CellTiter-Glo. The method, boiled down: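 OPM-2 cells at 3000 cells/well in RPMI 1640 with 10% FBS were exposed to serially diluted compounds for 16 h at 37 °C, 5% CO2.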
A word on the IC50: it is the concentration that gives 50% inhibition. In the case of `C[C@@H]1[C@@H](C)C/C=C/[C@](O)(C#CCCc2ccccn2)[C@@H]2CC[C@H]2CN2C[C@@]3(CCCc4cc(Cl)ccc43)COc3ccc(cc32)C(=O)NS1(=O)=O` [Example 100455, (1S,3′R,6′R,7′R,8′E,11′S,12′R)-6-chloro-7′-hydroxy-11′,12′-dimethyl-7′-(4-(2-pyridinyl)-1-butyn-1-yl)-3,4-dihydro-2H,15′H-spiro[naphthalene-1,22′-[20]oxa[13]thia[1,14]diazatetracyclo [14.7.2.0~3,6~.0~19,24~]pentacosa[8,16,18,24]tetraen]-15′-one 13′,13′-dioxide], the IC50 was 140 nM.
Consider `CO[C@@]1(CC(=O)C2CC2)/C=C/C[C@H](C)[C@@H](C)S(=O)(=O)NC(=O)c2ccc3c(c2)N(C[C@@H]2CC[C@H]21)C[C@@]1(CCCc2cc(Cl)ccc21)CO3` [Example 100443, (1S,3′R,6′R,7′S,8′E,11′S,12′R)-6-chloro-7′-(2-cyclopropyl-2-oxoethyl)-7′-methoxy-11′,12′-dimethyl-3,4-dihydro-2H,15′H-spiro[naphthalene-1,22′-[20]oxa[13]thia[1,14]diazatetracyclo [14.7.2.0~3,6~.0~19,24~]pentacosa[8,16,18,24]tetraen]-15′-one 13′,13′-dioxide], for which the IC50 is 156 nM.
On to `C[C@@H]1[C@@H](C)CCC[C@](CO)(CN2CCOCC2)[C@@H]2CC[C@H]2CN2C[C@@]3(CCCc4cc(Cl)ccc43)COc3ccc(cc32)C(=O)NS1(=O)=O` [Example 100406, (1S,3′R,6′R,7′R,11′S,12′R)-6-chloro-7′-(hydroxymethyl)-11′,12′-dimethyl-7′-(4-morpholinylmethyl)-3,4-dihydro-2H,15′H-spiro[naphthalene-1,22′-[20]oxa[13]thia[1,14]diazatetracyclo [14.7.2.0~3,6~.0~19,24~]pentacosa[16,18,24]trien]-15′-one 13′,13′-dioxide], for which the IC50 was 747 nM.

The experiment is the same for the next values; noted with them: Homo sapiens, OPM-2, 16 h, read-out: OPM-2 10% FBS IC50 IP, OPM-2 cells, 10% FBS, 16 h incubation.
Turning to `CCO[C@@]1(CN2CCN3CCOC[C@@H]3C2)/C=C/C[C@H](C)[C@@H](CCOC)S(=O)(=O)NC(=O)c2ccc3c(n2)N(C[C@@H]2CC[C@H]21)C[C@@]1(CCCc2cc(Cl)ccc21)CO3` [Example 369, (1S,3′R,6′R,7′S,8′E,11′S,12′R)-6-chloro-7′-ethoxy-7′-((9aS)-hexahydropyrazino[2,1-c][1,4]oxazin-8(1H)-ylmethyl)-12′-(2-methoxyethyl)-11′-methyl-3,4-dihydro-2H,15′H-spiro[naphthalene-1,22′-[20]oxa[13]thia[1,14,25]triazatetracyclo [14.7.2.0~3,6~.0~19,24~]pentacosa[8,16,18,24]tetraen]-15′-one 13′,13′-dioxide], the concentration for half-maximal inhibition (IC50) was found to be 71 nM.
Consider `CO[C@@]1(CN2CCN3CCN(S(C)(=O)=O)C[C@@H]3C2)/C=C/C[C@H](C)[C@@H](C)S(=O)(=O)NC(=O)c2ccc3c(c2)N(C[C@@H]2CC[C@H]21)C[C@@]1(CCCc2cc(Cl)ccc21)CO3` [Example 228], for which the IC50 turned out to be 93.1 nM.
The same measure, in the same setting: the value for `CCO[C@]1(CN2CCN3CCCC[C@@H]3C2)/C=C/C[C@H](C)[C@@H](CCOC)S(=O)(=O)NC(=O)c2ccc3c(c2)N(C[C@@H]2CC[C@H]21)C[C@@]1(CCCc2cc(Cl)ccc21)CO3` [Example 15, (1S,3′R,6′R,7′R,8′E,11′S,12′R)-6-chloro-7′-ethoxy-12′-(2-methoxyethyl)-11′-methyl-7′-((9aR)-octahydro-2H-pyrido[1,2-a]pyrazin-2-ylmethyl)-3,4-dihydro-2H,15′H-spiro[naphthalene-1,22′-[20]oxa[13]thia[1,14]diazatetracyclo[14.7.2.0-3,6˜.0˜19,24˜]pentacosa[8,16,18,24]tetraen]-15′-one 13′,13′-dioxide] was 71 nM.
Regarding `CO[C@]1(CN2CCN(C3(C)COC3)CC2)/C=C/C[C@H](C)[C@@H](C)S(=O)(=O)NC(=O)c2ccc3c(c2)N(C[C@@H]2CC[C@H]21)C[C@@]1(CCCc2cc(Cl)ccc21)CO3` [Example 319, (1S,3′R,6′R,7′R,8′E,11′S,12′R)-6-chloro-7′-methoxy-11′,12′-dimethyl-7′-((4-(3-methyl-3-oxetanyl)-1-piperazinyl)methyl)-3,4-dihydro-2H,15′H-spiro[naphthalene-1,22′-[20]oxa[13]thia[1,14]diazatetracyclo [14.7.2.0~3,6~.0~19,24~]pentacosa[8,16,18,24]tetraen]-15′-one 13′,13′-dioxide], the IC50 is 87 nM.
On the same count and under the same terms, the same measure for `CCO[C@@]1(CN2CCC(N(CCOC)CCOC)CC2)/C=C/C[C@H](C)[C@@H](C)S(=O)(=O)NC(=O)c2ccc3c(c2)N(C[C@@H]2CC[C@H]21)C[C@@]1(CCCc2cc(Cl)ccc21)CO3` [Example 312, (1S,3′R,6′R,7′S,8′E,11′S,12′R)-7′-((4-(bis(2-methoxyethyl)amino)-1-piperidinyl)methyl)-6-chloro-7′-ethoxy-11′,12′-dimethyl-3,4-dihydro-2H,15′H-spiro[naphthalene-1,22′-[20]oxa[13]thia[1,14]diazatetracyclo [14.7.2.0~3,6~.0~19,24~]pentacosa[8,16,18,24]tetraen]-15′-one 13′,13′-dioxide]: 408 nM.
The same measure, in the same setting: the value for `CO[C@@]1(CNCCN2CCOCC2)/C=C/C[C@H](C)[C@@H](C)S(=O)(=O)NC(=O)c2ccc3c(c2)N(C[C@@H]2CC[C@H]21)C[C@@]1(CCCc2cc(Cl)ccc21)CO3` [Example 34, (1 S,3′R,6′R,7′S,8′E,11′S,12′R)-6-chloro-7′-methoxy-11′,12′-dimethyl-7′-(((2-(4-morpholinyl)ethyl)amino)methyl)-3,4-dihydro-2H, 15′H-spiro[naphthalene-1,22′-[20]oxa[13]thia[1,14]diazatetracyclo[14.7.2.0˜3,6˜.0˜19,24˜]pentacosa[8,16,18,24]tetraen]-15′-one 13′,13′-dioxide] was 379 nM; that for `C[C@@H]1[C@@H](C)C/C=C/[C@]2(CN(Cc3ccccc3)CCO2)[C@@H]2CC[C@H]2CN2C[C@@]3(CCCc4cc(Cl)ccc43)COc3ccc(cc32)C(=O)NS1(=O)=O` [Example 138, (1 S,3′R,6′R,7′R,8′E, 11′S,12′R)-4″-benzyl-6-chloro-11′,12′-dimethyl-3,4-dihydro-2H,15′H-dispiro[naphthalene-1,22′-[20]oxa[13]thia[1,14]diazatetracyclo[14.7.2.0-3,6˜.0˜19,24˜]pentacosa[8,16,18,24]tetraene-7′,2″-[1,4]oxazinan]-15′-one 13′,13′-dioxide] was more than 33300 nM.

Staying with this experiment, now noted: read-out: OPM-2 10% FBS IC50 IP; OPM-2 cells, 10% FBS, 16 h, CellTiter-Glo.
In the case of `CO[C@]1(c2cccnc2F)/C=C/C[C@H](C)[C@@H](C)S(=O)(=O)NC(=O)c2ccc3c(c2)N(C[C@@H]2CC[C@H]21)C[C@@]1(CCCc2cc(Cl)ccc21)CO3` [Example 100325, (1S,3′R,6′R,7′R,8′E,11′S,12′R)-6-chloro-7′-(2-fluoro-3-pyridinyl)-7′-methoxy-11′,12′-dimethyl-3,4-dihydro-2H,15′H-spiro[naphthalene-1,22′-[20]oxa[13]thia[1,14]diazatetracyclo [14.7.2.0~3,6~.0~19,24~]pentacosa[8,16,18,24]tetraen]-15′-one 13′,13′-dioxide], the half-maximal inhibitory concentration (IC50) was 482 nM.

Still in this experiment, the particulars now being: read-out: OPM-2 10% FBS IC50 IP; OPM-2 cells, 10% FBS, 16 h incubation.
As to `CO[C@]1(CN2CCN3CCN(C(C)=O)C[C@@H]3C2)/C=C/C[C@H](C)[C@@H](C)S(=O)(=O)NC(=O)c2ccc3c(c2)N(C[C@@H]2CC[C@H]21)C[C@@]1(CCCc2cc(Cl)ccc21)CO3` (single isomer, unassigned) [Example 229], the IC50 was 96 nM.
With `CCO[C@]1(CN2CCN(C(C)C)[C@H](C)C2)/C=C/C[C@H](C)[C@@H](CCOC)S(=O)(=O)NC(=O)c2ccc3c(c2)N(C[C@@H]2CC[C@H]21)C[C@@]1(CCCc2cc(Cl)ccc21)CO3` [Example 17, (1S,3′R,6′R,7′R,8′E,11′S,12′R)-6-chloro-7′-ethoxy-12′-(2-methoxyethyl)-11′-methyl-7′-(((3R)-3-methyl-4-(1-methylethyl)-1-piperazinyl)methyl)-3,4-dihydro-2H,15′H-spiro[naphthalene-1,22′-[20]oxa[13]thia[1,14]diazatetracyclo[14.7.2.0-3,6˜.0˜19,24˜]pentacosa[8,16,18,24]tetraen]-15′-one 13′,13′-dioxide], the IC50 turned out to be 34 nM.
The same measure, in the same setting: the value for `CO[C@]1(C(=O)N(C)C)/C=C/C[C@H](C)[C@@H](C)S(=O)(=O)NC(=O)c2ccc3c(c2)N(C[C@@H]2CC[C@H]21)C[C@@]1(CCCc2cc(Cl)ccc21)CO3` [Example 177, (1S,3′R,6′R,7′R,8′E,11′S,12′R)-6-chloro-7′-methoxy-N,N, 11′,12′-tetramethyl-15′-oxo-3,4-dihydro-2H-spiro[naphthalene-1,22′-[20]oxa[13]thia[1,14]diazatetracyclo[14.7.2.0-3,6˜.0˜19,24˜]pentacosa[8,16,18,24]tetraene]-7′-carboxamide 13′,13′-dioxide] was 615 nM.
For the molecule `CO[C@@]1(C(=O)N(C)C)/C=C/C[C@H](C)[C@@H](C)S(=O)(=O)NC(=O)c2ccc3c(c2)N(C[C@@H]2CC[C@H]21)C[C@@]1(CCCc2cc(Cl)ccc21)CO3` [Example 176, (1S,3′R,6′R,7′S,8′E,11′S,12′R)-6-chloro-7′-methoxy-N,N, 11′,12′-tetramethyl-15′-oxo-3,4-dihydro-2H-spiro[naphthalene-1,22′-[20]oxa[13]thia[1,14]diazatetracyclo[14.7.2.0-3,6˜.0˜19,24˜]pentacosa[8,16,18,24]tetraene]-7′-carboxamide 13′,13′-dioxide], the IC50 was 149 nM.
Turning to `C[C@@H]1[C@@H](C)C/C=C/C(O)(CN2CCN3CCCC[C@@H]3C2)[C@@H]2CC[C@H]2CN2C[C@@]3(CCCc4cc(Cl)ccc43)COc3ccc(cc32)C(=O)NS1(=O)=O` (single isomer, unassigned) [Example 242], the IC50 amounted to 791 nM.
